Test results: patent US20050208496A1, “Methods of testing for bronchial asthma or chronic obstructive pulmonary disease” (Genox Research, Inc., priority 2002, published 2005)

Test system: respiratory epithelial cells

“IL-13: human IL-13 (Peprotech, Inc.) added to the medium at 50 ng/mL to stimulate respiratory epithelial cells” was tested, and the “KCNMA1 (47575_g_at) expression change” value (lot 2, Day 3, AI) was −3.5, the “KCNMA1 (53796_at) expression change” value (lot 2, Day 3, AI) was −4.8 and the “KIAA0878 (48793_at) expression change” value (lot 2, Day 3, AI) was −2.1. For the same substance, the “KLF7 34216_at expression change” value (lot 2, Day 3, AI) was −2.6, the “KLF7 (42769_at) expression change” value (lot 2, Day 3, AI) was −5.7 and the “KRT15 37582_at expression change” value (lot 2, Day 3, AI) was −2.7. The “LOC51297 (49616_at) expression change” value (lot 2, Day 3, AI) was −13.4, the “LOC51297 (55440_at) expression change” value (lot 2, Day 3, AI) was −10.8 and the “LOC51297 (55442_g_at) expression change” value (lot 2, Day 3, AI) was −14.4. The “LOC129642 (42065_at) expression change” value (lot 2, Day 3, AI) was −2.8, the “LOC129642 (58288_at) expression change” value (lot 2, Day 3, AI) was −3 and the “MGC12536 46924_at expression change” value (lot 2, Day 3, AI) was −4.2. The “MGC13102 (54791_at) expression change” value (lot 2, Day 3, AI) was −2.1, the “MGC14128 55924_at expression change” value (lot 2, Day 3, AI) was −3.3 and the “MGC14128 (51669_r_at) expression change” value (lot 2, Day 3, AI) was −3. The “MGC14597 (46030_at) expression change” value (lot 2, Day 3, AI) was −8.5, the “N52554 47432_at expression change” value (lot 2, Day 3, AI) was −2.3 and the “N71183 52473_at expression change” value (lot 2, Day 3, AI) was −2.2. The “PR01489 57777_at expression change” value (lot 2, Day 3, AI) was −3.3, the “PSCA (63958_at) expression change” value (lot 2, Day 3, AI) was −5.5 and the “RAC2 32737_at expression change” value (lot 2, Day 3, AI) was −17.4. The “RGC32 (57044_s_at) expression change” value (lot 2, Day 3, AI) was −2.2, the “SCNN1B 39682_at expression change” value (lot 2, Day 3, AI) was −12.3 and the “SCYB14 (65823_at) expression change” value (lot 2, Day 3, AI) was −2.1. For the same substance, the “SERPINA3 (75248_at) expression change” value (lot 2, Day 3, AI) was −35.8, the “SLC11A3 (45826_at) expression change” value (lot 2, Day 3, AI) was −2.5 and the “SLC34A2 (48048_at) expression change” value (lot 2, Day 3, AI) was −4.3. The “SPON2 52576_s_at expression change” value (lot 2, Day 3, AI) was −3.1, the “STEAP 40297_at expression change” value (lot 2, Day 3, AI) was −2.6 and the “TCF8 33439_at expression change” value (lot 2, Day 3, AI) was −2.7. For the same substance, the “TGFBI (68339_at) expression change” value (lot 2, Day 3, AI) was −2.8, the “TNFAIP2 (74633_at) expression change” value (lot 2, Day 3, AI) was −2.2 and the “TNRC3 41246_at expression change” value (lot 2, Day 3, AI) was −2. The “TPM1 36790_at expression change” value (lot 2, Day 3, AI) was −5.4, the “TPM1 36791_g_at expression change” value (lot 2, Day 3, AI) was −3.5 and the “TPM1 36792_at expression change” value (lot 2, Day 3, AI) was −5. For the same substance, the “UCP2 37591_at expression change” value (lot 2, Day 3, AI) was −2.3, the “UGB 39220_at expression change” value (lot 2, Day 3, AI) was −17.8 and the “VEGFC 1934_s_at expression change” value (lot 2, Day 3, AI) was −2.5. For the same substance, the “VIM 34091_s_at expression change” value (lot 2, Day 3, AI) was −3.1, the “W72331 49486 at expression change” value (lot 2, Day 3, AI) was −7.8 and the “AA149682 (51925_at) expression fold change” value (lot 2, Day 3, AI method) was 2.2 fold. The “AA167714 (54897_at) expression fold change” value (lot 2, Day 3, AI method) was 2.9 fold, the “AA420479 (52539_at) expression fold change” value (lot 2, Day 3, AI method) was 2.2 fold and the “AA541787 (52622_at) expression fold change” value (lot 2, Day 3, AI method) was 2.2 fold. For the same substance, the “AA582926 (52307_at) expression fold change” value (lot 2, Day 3, AI method) was 2.2 fold, the “AA604375 (44127_at) expression fold change” value (lot 2, Day 3, AI method) was 2.1 fold and the “ADAM8 (40712_at) expression, fold change upon IL-13 stimulation” value (lot 2, Day 3, AI method) was 2.7 fold. For the same substance, the “ADAM28 (35479_at) expression, fold change upon IL-13 stimulation” value (lot 2, Day 3, AI method) was 3.5 fold, the “AI310524 (47087_at) expression fold change” value (lot 2, Day 3, AI method) was 2 fold and the “AI565105 (54886_at) expression fold change” value (lot 2, Day 3, AI method) was 2.2 fold. For the same substance, the “AI659927 (54033_at) expression fold change” value (lot 2, Day 3, AI method) was 4.6 fold, the “AI718385 (53061_at) expression fold change” value (lot 2, Day 3, AI method) was 2.2 fold and the “AI809925 (53010_at) expression fold change” value (lot 2, Day 3, AI method) was 2.2 fold. The “AI989346 (52327_s_at) expression fold change” value (lot 2, Day 3, AI method) was 2.2 fold, the “AKAP2 (35985_at) expression, fold change upon IL-13 stimulation” value (lot 2, Day 3, AI method) was 2.5 fold and the “AKAP2 (48035_at) expression fold change” value (lot 2, Day 3, AI method) was 3 fold. The “ALOX15 (34636_at) expression, fold change upon IL-13 stimulation” value (lot 2, Day 3, AI method) was 112.2 fold, the “ARL7 (57151_at) expression fold change” value (lot 2, Day 3, AI method) was 6.1 fold and the “AW019985 (48826_s_at) expression fold change” value (lot 2, Day 3, AI method) was 9.8 fold. For the same substance, the “BAL (52167_at) expression fold change” value (lot 2, Day 3, AI method) was 2.7 fold, the “BRCA1 (626_s_at) expression fold change” value (lot 2, Day 3, AI method) was 19.3 fold and the “BST2 (39061_at) expression, fold change upon IL-13 stimulation” value (lot 2, Day 3, AI method) was 5.8 fold. For the same substance, the “C21orf11 (58957_at) expression fold change” value (lot 2, Day 3, AI method) was 7.1 fold, the “CCND3 (1794_at) expression fold change upon IL-13 stimulation” value (lot 2, Day 3, AI method) was 2.3 fold and the “CCND3 (1795_g_at) expression fold change upon IL-13 stimulation” value (lot 2, Day 3, AI method) was 2.4 fold. The “CD47 (37890_at) expression fold change” value (lot 2, Day 3, AI method) was 2.4 fold, the “CDH6 (1620_at) expression fold change upon IL-13 stimulation” value (lot 2, Day 3, AI method) was 5.6 fold and the “CDH6 (57421_at) expression fold change” value (lot 2, Day 3, AI method) was 2.9 fold. For the same substance, the “CDH26 (46916_at) expression fold change” value (lot 2, Day 3, AI method) was 10.5 fold, the “CH25H (32363_at) expression, fold change upon IL-13 stimulation” value (lot 2, Day 3, AI method) was 14.9 fold and the “CLDN1 (46260_at) expression fold change” value (lot 2, Day 3, AI method) was 2.4 fold. For the same substance, the “CLDN4 (35276_at) expression, fold change upon IL-13 stimulation” value (lot 2, Day 3, AI method) was 2.2 fold, the “CTSC (133_at) expression, fold change upon IL-13 stimulation” value (lot 2, Day 3, AI method) was 3.9 fold and the “CXCL16 (44095_at) expression fold change” value (lot 2, Day 3, AI method) was 2.3 fold. For the same substance, the “DBCCR1 (40292_at) expression, fold change upon IL-13 stimulation” value (lot 2, Day 3, AI method) was 7.9 fold, the “DD96 (31610_at) expression, fold change upon IL-13 stimulation” value (lot 2, Day 3, AI method) was 5.3 fold and the “DKFZP564O0823 (41402_at) expression, fold change upon IL-13 stimulation” value (lot 2, Day 3, AI method) was 5.4 fold. The “DKFZP566J091 (57197_at) expression fold change” value (lot 2, Day 3, AI method) was 45.3 fold, the “DKFZp564N1116 (37784_at) expression, fold change upon IL-13 stimulation” value (lot 2, Day 3, AI method) was 5 fold and the “DNAJA1 (276_at) expression fold change upon IL-13 stimulation” value (lot 2, Day 3, AI method) was 2.2 fold. For the same substance, the “DPP4 (34823_at) expression fold change upon IL-13 stimulation” value (lot 2, Day 3, AI method) was 7.6 fold, the “DPYD (38220_at) expression fold change upon IL-13 stimulation” value (lot 2, Day 3, AI method) was 3.9 fold and the “EMILIN-2 (51628_at) expression fold change” value (lot 2, Day 3, AI method) was 2.9 fold. The “FABP4 (38430_at) expression, fold change upon IL-13 stimulation” value (lot 2, Day 3, AI method) was 2.5 fold, the “FBP1 (36495_at) expression fold change upon IL-13 stimulation” value (lot 2, Day 3, AI method) was 4.4 fold and the “FETUB (32620_at) expression fold change” value (lot 2, Day 3, AI method) was 37.6 fold. For the same substance, the “FETUB (33101_g_at) expression fold change” value (lot 2, Day 3, AI method) was 24.7 fold, the “FLJ10261 (43366_at) expression fold change” value (lot 2, Day 3, AI method) was 11.2 fold and the “FLJ10261 (43963_at) expression fold change” value (lot 2, Day 3, AI method) was 14.4 fold. For the same substance, the “FLJ22693 (53777_at) expression fold change” value (lot 2, Day 3, AI method) was 2.2 fold, the “FUT10 (908_at) expression fold change upon IL-13 stimulation” value (lot 2, Day 3, AI method) was 8.9 fold and the “GADD45G (39154_at) expression fold change upon IL-13 stimulation” value (lot 2, Day 3, AI method) was 5.3 fold. For the same substance, the “GBP5 (52615_at) expression fold change” value (lot 2, Day 3, AI method) was 4.5 fold, the “GS3686 (36927_at) expression, fold change upon IL-13 stimulation” value (lot 2, Day 3, AI method) was 6.4 fold and the “HAS3 (54604_at) expression fold change” value (lot 2, Day 3, AI method) was 2 fold. For the same substance, the “HDAC9 (37483_at) expression fold change upon IL-13 stimulation” value (lot 2, Day 3, AI method) was 3.7 fold, the “HS3ST1 (41556_s_at) expression fold change upon IL-13 stimulation” value (lot 2, Day 3, AI method) was 5.8 fold and the “HSPA5 (47634_at) expression fold change” value (lot 2, Day 3, AI method) was 3.7 fold. The “ICAMt (32640_at) expression fold change upon IL-13 stimulation” value (lot 2, Day 3, AI method) was 2.8 fold, the “IFI27 (425_at) expression, fold change upon IL-13 stimulation” value (lot 2, Day 3, AI method) was 2.5 fold and the “IFI27 (48864_at) expression fold change” value (lot 2, Day 3, AI method) was 2.1 fold. For the same substance, the “IFI35 (464_s_at) expression, fold change upon IL-13 stimulation” value (lot 2, Day 3, AI method) was 4.5 fold, the “IFI44 (37641_at) expression, fold change upon IL-13 stimulation” value (lot 2, Day 3, AI method) was 3.8 fold and the “IFIT1 (915_at) expression, fold change upon IL-13 stimulation” value (lot 2, Day 3, AI method) was 9 fold. For the same substance, the “IFIT1 (32814_at) expression, fold change upon IL-13 stimulation” value (lot 2, Day 3, AI method) was 4 fold.
